This note sets out measurements from patent publication US20250064789A1, “KETOAMIDE DERIVATIVES AND PHARMACEUTICAL USES THEREOF” (priority 2022, published 2025).

Each structure is given as a SMILES string.

One test deals with recombinant SARS-CoV-2 M^pro (Severe acute respiratory syndrome coronavirus 2 (2019-nCoV) (SARS-CoV-2), UniProt P0DTD1). The test is described as follows: Inhibition of SARS-CoV-2 M^pro enzyme activity (fluorescent substrate assay). The format is biochemical. Particulars: inhibition of SARS-CoV-2 M^pro enzyme activity; values given in μM; read-out: IC50.
Take `O=C(NCc1ccccn1)C(=O)[C@@H](Cc1ccccc1)NC(=O)[C@@H]1C[C@@H]2CCC[C@@H]2N1C(=O)C1CCC(F)(F)CC1` [Compound 263]: the half-inhibitory concentration (IC50) (as a rule, the concentration that inhibits the measured activity by half) amounted to 1.56 ± 0.05 µM. The same measure, in the same setting: the figure for `CC(C)(C)[C@H](NC(=O)C(F)(F)F)C(=O)N[C@H](Cc1ccccc1)C(=O)C(=O)NCc1ccccn1` [Compound 245] is more than 5 µM. The same measure, in the same setting: the result for `O=C(NCc1nccs1)C(=O)[C@@H](Cc1ccc(F)cc1)NC(=O)c1ccccc1` [Compound 466] reads 1.95 ± 0.29 µM.

Still in this test, the particulars now being: inhibition of SARS-CoV-2 M^pro enzyme activity; values in nM; read-out: IC50.
For `O=C(NCc1nccs1)C(=O)[C@@H](Cc1ccccc1)NC(=O)[C@H]1CC(F)(F)CN1C(=O)C1CCCC(F)(F)C1` (some centres unmarked) [Compound 403], the IC50 worked out at 0.0204 ± 0.0024 µM.

With `O=C(NCc1ccccn1)C(=O)[C@@H](Cc1ccccc1)NC(=O)[C@@H]1COCCN1C(=O)CC1CCC(F)(F)CC1` [Compound 292], the IC50 worked out at 0.0114 ± 0.0002 µM. On the same count and under the same terms, the result for `O=C(CNC(=O)c1ccc(F)cc1)N[C@H](Cc1ccccc1)C(=O)C(=O)NCc1nccs1` [Compound 483] reads 0.3384 ± 0.003 µM; that for `O=C(NCc1ccccn1)C(=O)[C@@H](Cc1ccccc1)NC(=O)C1(NC(=O)c2ccc(F)cc2)CC1` [Compound 170], 0.0194 ± 0.0007 µM; that for `C[C@@H](NC(=O)OCc1ccccc1)C(=O)N[C@H](Cc1ccccc1)C(=O)C(=O)NCc1ccccn1` [Compound 316], 0.0159 ± 0.0004 µM. In the case of `O=C(NCc1ccccn1)C(=O)[C@@H](Cc1ccccc1)NC(=O)C1(NC(=O)C2CCC(F)(F)CC2)CC1` [Compound 159], the IC50 amounted to 0.0215 ± 0.0057 µM.

Regarding `O=C(NCc1nccs1)C(=O)[C@@H](Cc1ccccc1)NC(=O)C1(NC(=O)C2CCC(F)(F)CC2)CC(F)(F)C1` [Compound 540], the IC50 was 0.0269 ± 0.0001 µM. Still for that read-out and setting: the figure for `O=C(NCc1ccccn1)C(=O)[C@@H](Cc1ccccc1)NC(=O)[C@H]1CC2CCCCC2N1C(=O)NCC1CC(F)(F)C1` (some centres unmarked) [Compound 308] is 0.0139 ± 0.0012 µM; for `CC(C(=O)N[C@H](C)C(=O)N[C@H](Cc1ccccc1)C(=O)C(=O)NCc1ccccn1)C1CCCCC1` (some centres unmarked) [Compound 130] it is 0.0986 ± 0.0068 µM; for `C[C@@H](NC(=O)C1CCC(F)(F)C1)C(=O)N[C@H](Cc1ccccc1)C(=O)C(=O)NCc1ccccn1` (some centres unmarked) [Compound 121] it is 0.0507 ± 0.0004 µM.

With `O=C(NC1(C(=O)N[C@H](Cc2ccccc2)C(=O)C(=O)NCc2ccccn2)CCC1)OCC1CCC(F)(F)CC1` [Compound 313, (4,4-difluorocyclohexyl)methyl(R)-(1-((3,4-dioxo-1-phenyl-4-((pyridin-2-ylmethyl)amino)butan-2-yl)carbamoyl)cyclobutyl) carbamate], the IC50 came out at 0.016 ± 0.002 µM. On the same count and under the same terms, the result for `CC(C)(NC(=O)C(=O)c1ccccc1)C(=O)N[C@H](Cc1ccccc1)C(=O)C(=O)NCc1ccccn1` [Compound 179] reads 0.0145 ± 0.0019 µM; that for `CC(C)(C(=O)NC1CCC(F)(F)CC1)C(=O)N[C@H](Cc1ccccc1)C(=O)C(=O)NCc1ccccn1` [Compound 323], 0.0307 ± 0.0019 µM. On the same count and under the same terms, the result for `O=C(NCc1ccccn1)C(=O)[C@@H](Cc1ccccc1)NC(=O)[C@H]1CC(F)(F)CN1C(=O)C1(F)CCCCC1` [Compound 277] reads 0.0307 ± 0.0006 µM; that for `O=C(NCc1ccccn1)C(=O)[C@@H](Cc1ccccc1)NC(=O)C1(OCc2ccc(Cl)cc2)CC1` [Compound 25], 0.0249 ± 0.0003 µM; that for `O=C(NCc1ccccn1)C(=O)[C@@H](Cc1ccccc1)NC(=O)C1(NC(=O)[C@H]2CC[C@@H](F)CC2)CCC1` [Compound 188], 0.079 ± 0.0088 µM. Same read-out and setting: the figure for `CC(C)(NC(=O)NCC1CCC(F)(F)CC1)C(=O)N[C@H](Cc1ccccc1)C(=O)C(=O)NCc1ccccn1` [Compound 303] is 0.0107 ± 0.001 µM; for `C[C@@H](NC(=O)c1ccc(Cl)cc1F)C(=O)N[C@H](Cc1ccccc1)C(=O)C(=O)NCc1ccccn1` [Compound 100] it is 0.013 ± 0.0014 µM; for `CC(C)(C)OC(=O)NCC(C)(C)C(=O)N[C@H](Cc1ccccc1)C(=O)C(=O)NCc1ccccn1` [Compound 255] it is 0.111 ± 0.0041 µM. Regarding `C[C@@H](NC(=O)CC1CC1(F)F)C(=O)N[C@H](Cc1ccco1)C(=O)C(=O)NCc1nccs1` (some centres unmarked) [Compound 368], the IC50 was 0.197 ± 0.014 µM. On the same count and under the same terms, the result for `O=C(NCc1ccccn1)C(=O)[C@@H](Cc1ccccc1)NC(=O)C1(NC(=O)C2CCC(F)(F)CC2)COC1` [Compound 234] reads 0.0188 ± 0.0027 µM; that for `COC[C@@H](NC(=O)NC1CCC(F)(F)CC1)C(=O)N[C@H](Cc1ccccc1)C(=O)C(=O)NCc1nccs1` [Compound 551], 0.0233 ± 0.0031 µM; that for `COc1ccc(OC(F)(F)F)cc1C(=O)N[C@H](C)C(=O)N[C@H](Cc1ccccc1)C(=O)C(=O)NCc1nccs1` [Compound 384], 0.0155 ± 0.0003 µM.

Regarding `O=C(NCc1nccs1)C(=O)[C@@H](Cc1ccccc1)NC(=O)C1(NC(=O)C2CCC(F)(F)CC2)CCCCC1` [Compound 542], the IC50 was 0.0524 ± 0.007 µM.

For the compound `CC(C)[C@@H](OCc1ccc(F)cc1)C(=O)N[C@H](Cc1ccccc1)C(=O)C(=O)NCc1ccc(Cl)cn1` [Compound 49], the IC50 worked out at 0.0147 ± 0.0004 µM. On the same count and under the same terms, the result for `C[C@@H](NC(=O)C1CCCC(F)(F)C1)C(=O)N[C@H](Cc1ccccc1)C(=O)C(=O)NCc1cscn1` (some centres unmarked) [Compound 416] reads 0.019 ± 0.0004 µM; that for `C[C@@H](NC(=O)Cc1cc2ccccc2o1)C(=O)N[C@H](Cc1ccccc1)C(=O)C(=O)NCc1ccccn1` [Compound 62], 0.0278 ± 0.0009 µM. Still for that read-out and setting: the result for `O=C(NCc1nccs1)C(=O)[C@@H](Cc1ccccc1)NC(=O)[C@H]1COCCN1C(=O)C1CCC(F)(F)C1` (some centres unmarked) [Compound 409] reads 0.0366 ± 0.0004 µM; that for `COC[C@@H](NC(=O)N1CC(F)(F)C(F)(F)C1)C(=O)N[C@H](Cc1ccccc1)C(=O)C(=O)NCc1nccs1` [Compound 552], 0.2009 ± 0.0016 µM; that for `O=C(NCc1ccccn1)C(=O)[C@@H](Cc1ccccc1)NC(=O)[C@@H](Cc1cccnc1)NC(=O)C1CCC(F)(F)CC1` [Compound 218], 0.0234 ± 0.0008 µM. On to `C[C@@H](NC(=O)COC(F)(F)F)C(=O)N[C@H](Cc1ccccc1)C(=O)C(=O)NCc1ccccn1` [Compound 80], for which the IC50 turned out to be 0.0586 ± 0.0032 µM. The same measure, in the same setting: the result for `O=C(NCc1nccs1)C(=O)[C@@H](Cc1ccccc1)NC(=O)[C@H]1COCCN1C(=O)CC1CCC(F)(F)CC1` [Compound 411] reads 0.0155 ± 0.0001 µM; that for `O=C(CNC(=O)[C@@H]1C[C@@H]2[C@H](C1)C2(F)F)N[C@H](Cc1ccccc1)C(=O)C(=O)NCc1ccccn1` [Compound 152], 0.0187 ± 0.0006 µM.

On to `COc1ccc(OCC(=O)N[C@H](C)C(=O)N[C@H](Cc2ccccc2)C(=O)C(=O)NCc2ccccn2)cc1` [Compound 92], for which the half-inhibitory concentration (IC50) was 0.0266 ± 0.0004 µM. Same read-out and setting: the result for `O=C(Cn1cc(-c2cc(F)cc(F)c2)cn1)N[C@H](Cc1ccccc1)C(=O)C(=O)NCc1nccs1` [Compound 502] reads 0.047 ± 0.0005 µM; that for `O=C(NCc1ccccn1)C(=O)[C@@H](Cc1ccccc1)NC(=O)C1(NC(=O)C2CCC(F)(F)CC2)CC1` [Compound 169], 0.0226 ± 0.0037 µM. Same read-out and setting: the figure for `N#Cc1cc(F)cc(N2CC(=O)N(CC(=O)N[C@H](Cc3ccccc3)C(=O)C(=O)NCc3nccs3)C2=O)c1` [Compound 518, (R)-3-(2-(3-(3-cyano-5-fluorophenyl)-2,5-dioxoimidazolidin-1-yl)acetylamino)-2-oxo-4-phenyl-N-(thiazole-2-ylmethyl) butyramide] is 0.2485 ± 0.0014 µM; for `O=C(CC1CCC(F)(F)CC1)N[C@H](CC1CCCCC1)C(=O)N[C@H](Cc1ccccc1)C(=O)C(=O)NCc1ccccn1` [Compound 236] it is 0.0414 ± 0.0001 µM.
